Measurements taken from US10988478B1, “Pyrazolo[1,5a]pyrimidine derivatives as IRAK4 modulators” (Genentech, Inc., priority 2015, dated 2021).
pKi: −log10 of the molar value.

The compounds below were run against human IRAK4 (Homo sapiens (Human), UniProt Q9NWZ3) (assay: IRAK4 kinase inhibition, Transcreener fluorescence polarization ADP assay). Settings: recombinant full-length His6-IRAK4; 125 uM ATP; 90 min; Ki computed using ATP Km 642 uM.
Format: biochemical
Experimental: Compounds were assayed for inhibition of human IRAK4 and IRAK1 catalytic activity using recombinant enzyme produced from insect cells. Full-length IRAK4 protein, carrying an N-terminal His6-Tag, was obtained from Life Technologies (Carlsbad, Calif., USA). The IRAK1 construct was produced internally and was comprised of IRAK1 residues Arg194 to Ser712, preceded by an NH2-terminal His6 tag and the coding sequence for glutathione-S-transferase.

Sequence of human IRAK4 (Q9NWZ3 whole entry): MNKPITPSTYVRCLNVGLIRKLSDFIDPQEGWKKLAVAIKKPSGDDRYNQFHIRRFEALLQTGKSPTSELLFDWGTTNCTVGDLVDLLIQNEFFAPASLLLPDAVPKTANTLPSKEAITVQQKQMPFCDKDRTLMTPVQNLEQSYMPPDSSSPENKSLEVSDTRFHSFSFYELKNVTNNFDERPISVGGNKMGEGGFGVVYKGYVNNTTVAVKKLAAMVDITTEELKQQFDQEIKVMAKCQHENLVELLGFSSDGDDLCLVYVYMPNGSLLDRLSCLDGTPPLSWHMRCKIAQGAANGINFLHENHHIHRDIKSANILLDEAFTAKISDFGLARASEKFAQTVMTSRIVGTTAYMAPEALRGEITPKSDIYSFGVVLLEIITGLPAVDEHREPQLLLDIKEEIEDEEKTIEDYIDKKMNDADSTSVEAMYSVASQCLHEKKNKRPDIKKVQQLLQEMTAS

pKi | SMILES
8.17 | Cc1oc(=O)[nH]c1CN1CCN(c2cc3c(cc2NC(=O)c2cnn4cccnc24)CC(C)(C)O3)CC1 [Example 479, N-[2,2-Dimethyl-6-[4-[(5-methyl-2-oxo-3H-oxazol-4-yl)methyl]piperazin-1-yl]-3H-benzofuran-5-yl]pyrazolo[1,5-a]pyrimidine-3-carboxamide]
6.46 | CC(C)N1Cc2cc(NC(=O)c3cnn4ccc(C(F)F)nc34)c(N3CCOCC3)cc2C1=O [Example 484, 5-(Difluoromethyl)-N-(2-isopropyl-6-morpholino-1-oxo-isoindolin-5-yl)pyrazolo[1,5-a]pyrimidine-3-carboxamide]
7.18 | CC(C)N1Cc2cc(NC(=O)c3cnn4cc(C#N)cnc34)c(N3CCOCC3)cc2C1=O [Example 485, 6-cyano-N-(2-isopropyl-6-morpholino-1-oxo-isoindolin-5-yl)pyrazolo[1,5-a]pyrimidine-3-carboxamide]
7.43 | CC(C)N1Cc2cc(NC(=O)c3cnn4cc(C(N)=O)cnc34)c(N3CCOCC3)cc2C1=O [Example 486, N3-(2-isopropyl-6-morpholino-1-oxo-isoindolin-5-yl)pyrazolo[1,5-a]pyrimidine-3,6-dicarboxamide]
9.21 | CC(C)(O)[C@H](F)CN1Cc2cc(NC(=O)c3cnn4cccnc34)c(C3CC3)cc2C1=O [Example 487, N-[6-Cyclopropyl-2-[(2R)-2-fluoro-3-hydroxy-3-methyl-butyl]-1-oxo-isoindolin-5-yl]pyrazolo[1,5-a]pyrimidine-3-carboxamide]
6.21 | Cn1cnc(-c2cc3c(cc2NC(=O)c2cnn4cccnc24)CC(C)(C)O3)c1 [Example 488, N-[2,2-Dimethyl-6-(1-methylimidazol-4-yl)-3H-benzofuran-5-yl]pyrazolo[1,5-a]pyrimidine-3-carboxamide]

Second part, the compound before the results:

SMILES | pKi
C[C@H](C(N)=O)N1CCN(c2cc3c(cc2NC(=O)c2cnn4cccnc24)CC(C)(C)O3)CC1 [Example 472, N-[6-[4-[(1R)-2-amino-1-methyl-2-oxo-ethyl]piperazin-1-yl]-2,2-dimethyl-3H-benzofuran-5-yl]pyrazolo[1,5-a]pyrimidine-3-carboxamide] | 8.60
C[C@@H](C(N)=O)N1CCN(c2cc3c(cc2NC(=O)c2cnn4cccnc24)CC(C)(C)O3)CC1 [Example 473, N-[6-[4-[(1S)-2-amino-1-methyl-2-oxo-ethyl]piperazin-1-yl]-2,2-dimethyl-3H-benzofuran-5-yl]pyrazolo[1,5-a]pyrimidine-3-carboxamide] | 8.30
C[C@H](O)CN1CCN(c2cc3c(cc2NC(=O)c2cnn4cccnc24)CC(C)(C)O3)CC1 [Example 474, (S)-N-(6-(4-(2-hydroxypropyl)piperazin-1-yl)-2,2-dimethyl-2,3-dihydrobenzofuran-5-yl)pyrazolo[1,5-a]pyrimidine-3-carboxamide] | 7.70
C[C@@H](O)CN1CCN(c2cc3c(cc2NC(=O)c2cnn4cccnc24)CC(C)(C)O3)CC1 [Example 475, (R)-N-(6-(4-(2-hydroxypropyl)piperazin-1-yl)-2,2-dimethyl-2,3-dihydrobenzofuran-5-yl)pyrazolo[1,5-a]pyrimidine-3-carboxamide] | 8.02
CC(C)(N)CN1CCN(c2cc3c(cc2NC(=O)c2cnn4cccnc24)CC(C)(C)O3)CC1 [Example 476, N-(6-(4-(2-amino-2-methylpropyl)piperazin-1-yl)-2,2-dimethyl-2,3-dihydrobenzofuran-5-yl)pyrazolo[1,5-a]pyrimidine-3-carboxamide] | 7.48
C[C@@H](N)CN1CCN(c2cc3c(cc2NC(=O)c2cnn4cccnc24)CC(C)(C)O3)CC1 [Example 477, N-[6-[4-[(2R)-2-Aminopropyl]piperazin-1-yl]-2,2-dimethyl-3H-benzofuran-5-yl]pyrazolo[1,5-a]pyrimidine-3-carboxamide] | 7.46
C[C@H](N)CN1CCN(c2cc3c(cc2NC(=O)c2cnn4cccnc24)CC(C)(C)O3)CC1 [Example 478, N-[6-[4-[(2S)-2-Aminopropyl]piperazin-1-yl]-2,2-dimethyl-3H-benzofuran-5-yl]pyrazolo[1,5-a]pyrimidine-3-carboxamide] | 8.22
